{"source": "patent US12324832B2", "about": "“Application of heptoglycan-chain-containing oligosaccharide compounds in preparation of vaccine against Helicobacter pylori” (Jiangnan University, priority 2020, dated 2025)", "tested_on": "serum antibodies generated against the Helicobacter pylori serotype O:6 purified polysaccharide", "assay": "Oligosaccharide chip: binding of antiserum antibodies to spotted synthetic oligosaccharides", "set-up": "species or system rabbit", "conditions": "spotting concentration 1 mM; for fluorescence intensity on oligosaccharide chip: FIG. 6A/6B, serum diluted 1:50; for recognition and binding by antibodies in the antiserum: oligosaccharide fixed on chip via amino linker, antiserum against H. pylori serotype O6 LPS, anti-rabbit IgG FITC-labeled secondary antibody", "protocol": "FIG. 6A: Detection of the antibody binding activity of the synthetic oligosaccharides in the oligosaccharide chip using an anti-rabbit IgG FITC-labeled secondary antibody. The chip spotting mode is shown as follows: • 1: trisaccharide 1, spotting concentration is 1 mM; • 2: tetrasaccharide 2, spotting concentration is 1 mM; • 3: heptoglycan-chain-containing pentasaccharide 3, spotting concentration is 1 mM; • 4: heptoglycan-chain-containing pentasaccharide 4, spotting concentration is 1 mM; • 5: […] containing only Lewis O-antigen, spotting concentration is 1 mM; • 6: heptoglycan-chain-containing octasaccharide 6, spotting concentration is 1 mM; • 7: tridecasaccharide 7 containing Lewis O-antigen, spotting concentration is 1 mM; and • 8: Helicobacter pylori serotype O6 lipopolysaccharide, spotting concentration is 1 mg/mL.\nFIG. 6B: quantitative measurements of average fluorescence intensity of spots 1-7 in FIG. 6A. Error bars are standard deviations of 4 different points from two different detection areas.\nA chemically synthesized oligosaccharide antigen was fixed onto the chip surface through an amino linker, and the antiserum was incubated with the oligosaccharide chip and then incubated with the secondary antibody.\nUnder a chip scanner, the fluorescence of the binding of the oligosaccharide fragment and the antibody can be obtained. In this way, the binding strength of the oligosaccharide fragment to the antibody in the serum can be quantified, the amount of the chemically synthesized oligosaccharide and antiserum can be saved, and the result can be reflected clearly.\nThe experimental procedure is as follows: • (1) Activated amino slides were spotted with a biochip spotter. After the completion of the spotting, incubation was carried out overnight at a temperature of 26° C. and a humidity of 55%. • (2) Then the slides were immersed in a solution B (50 nM Na2HPO4, 100 nM ethanolamine in water) at 50° C. for 1 hour. The slides were washed with ultrapure water 3 times, and the residual water was removed by centrifugation. • (3) 3% BSA (w/v) in PBS was used for blocking at 4° C. overnight. The slides were washed with PBST (PBS containing 0.1% tween) once, washed with PBS twice, and centrifugally dried. • (4) The slides were placed into a 16-well incubator (ProPlate). 120 μL of mouse serum sample diluted 1:50 in 1% BSA (w/v) in PBS was added to each well, and incubated in a 37° C. wet box in the dark for 1 hour. The sample was removed, and the incubator was washed with 150 μL of PBST 3 times. • (5) A secondary antibody diluted 1:400 in 1% BSA (w/v) in PBS was added, and incubated in a wet box at 37° C. in the dark for 45 minutes. The secondary antibody solution was removed, and the incubator was washed with 150 μL of PBST 3 times. The 16-well incubator was removed, washed with ultrapure water, and washed with ultrapure water for 15 minutes. The residual water was removed by centrifugation. Scanning was carried out using the chip scanner. Immunogenicity Detection of Helicobacter pylori Serotype O:6 Synthetic Oligosaccharide Fragment:\nNHS slides (SurModics, DN01-0025) were spotted with synthetic oligosaccharide compounds 1 to 7 using a biochip spotter (Jiangsu RayMe Biotechnology Co., Ltd.). After the completion of the spotting, incubation was carried out overnight at a temperature of 26° C. and a humidity of 55%. Then the slides were immersed in a solution B (50 nM Na2HPO4, 100 nM ethanolamine in water) at 50° C. for 1 hour. The slides were washed with ultrapure water 3 times, and the residual water was removed by centrifugation. 3% BSA (w/v) in PBS was used for blocking at 4° C. overnight. The slides were washed with PBST (PBS containing 0.1% tween) once, washed with PBS twice, and centrifugally dried. The slides were placed into a 16-well incubator (ProPlate). 120 μL of mouse serum sample diluted 1:50 in 1% BSA (w/v) in PBS was added to each well, and incubated in a 37° C. wet box in the dark for 1 hour. […]", "note": "“Also recorded” adds a separate entry of the source."}
{"smiles": "NCCCO[C@H]1OC([C@H](O)CO)[C@@H](O)[C@H](O)C1O[C@H]1OC([C@H](O)CO)[C@@H](O)[C@H](O)C1O[C@H]1OC([C@@H](CO)O[C@H]2OC([C@H](O)CO)[C@@H](O)[C@H](O[C@H]3O[C@@H]([C@H](O)CO)[C@@H](O)C(O[C@H]4OC([C@H](O)CO)[C@@H](O)[C@H](O[C@H]5O[C@@H]([C@H](O)CO)[C@@H](O)C(O[C@H]6OC([C@H](O)CO)[C@@H](O)[C@H](O)C6O)C5O)C4O)C3O)C2O)[C@@H](O)[C@H](O)C1O", "note": "(stereo partly drawn) [Compound 6]", "values": [{"measurement": "fluorescence intensity on oligosaccharide chip", "value": "higher fluorescence intensity"}, {"measurement": "recognition and binding by antibodies in the antiserum", "value": "well recognized; also recorded: obvious and strong recognition and binding"}]}
{"smiles": "NCCCO[C@H]1OC([C@H](O)CO)[C@@H](O)[C@H](O)C1O[C@H]1OC([C@H](O)CO)[C@@H](O)[C@H](O)C1O[C@H]1OC([C@@H](CO)O[C@H]2OC([C@H](O)CO)[C@@H](O)[C@H](O[C@H]3OC([C@H](O)CO)[C@@H](O)C(O)C3O)C2O)[C@@H](O)[C@H](O)C1O", "note": "(stereo partly drawn) [Compound 3]", "values": [{"measurement": "fluorescence intensity on oligosaccharide chip", "value": "higher fluorescence intensity"}, {"measurement": "recognition and binding by antibodies in the antiserum", "value": "well recognized; also recorded: obvious and strong recognition and binding"}]}
{"smiles": "NCCCO[C@H]1OC([C@H](O)CO)[C@@H](O)[C@H](O[C@H]2O[C@@H]([C@H](O)CO)[C@@H](O)C(O[C@H]3OC([C@H](O)CO)[C@@H](O)[C@H](O[C@H]4O[C@@H]([C@H](O)CO)[C@@H](O)C(O[C@H]5OC([C@H](O)CO)[C@@H](O)[C@H](O)C5O)C4O)C3O)C2O)C1O", "note": "(stereo partly drawn) [Compound 4]", "values": [{"measurement": "fluorescence intensity on oligosaccharide chip", "value": "higher fluorescence intensity"}, {"measurement": "recognition and binding by antibodies in the antiserum", "value": "well recognized; also recorded: obvious and strong recognition and binding"}]}
